Target: T1, human ANO6 (Homo sapiens, UniProt Q4KMQ2)
T1 construct: expressed in transfected cells
T1 sequence (Q4KMQ2 1-931 isoform Q4KMQ2-2): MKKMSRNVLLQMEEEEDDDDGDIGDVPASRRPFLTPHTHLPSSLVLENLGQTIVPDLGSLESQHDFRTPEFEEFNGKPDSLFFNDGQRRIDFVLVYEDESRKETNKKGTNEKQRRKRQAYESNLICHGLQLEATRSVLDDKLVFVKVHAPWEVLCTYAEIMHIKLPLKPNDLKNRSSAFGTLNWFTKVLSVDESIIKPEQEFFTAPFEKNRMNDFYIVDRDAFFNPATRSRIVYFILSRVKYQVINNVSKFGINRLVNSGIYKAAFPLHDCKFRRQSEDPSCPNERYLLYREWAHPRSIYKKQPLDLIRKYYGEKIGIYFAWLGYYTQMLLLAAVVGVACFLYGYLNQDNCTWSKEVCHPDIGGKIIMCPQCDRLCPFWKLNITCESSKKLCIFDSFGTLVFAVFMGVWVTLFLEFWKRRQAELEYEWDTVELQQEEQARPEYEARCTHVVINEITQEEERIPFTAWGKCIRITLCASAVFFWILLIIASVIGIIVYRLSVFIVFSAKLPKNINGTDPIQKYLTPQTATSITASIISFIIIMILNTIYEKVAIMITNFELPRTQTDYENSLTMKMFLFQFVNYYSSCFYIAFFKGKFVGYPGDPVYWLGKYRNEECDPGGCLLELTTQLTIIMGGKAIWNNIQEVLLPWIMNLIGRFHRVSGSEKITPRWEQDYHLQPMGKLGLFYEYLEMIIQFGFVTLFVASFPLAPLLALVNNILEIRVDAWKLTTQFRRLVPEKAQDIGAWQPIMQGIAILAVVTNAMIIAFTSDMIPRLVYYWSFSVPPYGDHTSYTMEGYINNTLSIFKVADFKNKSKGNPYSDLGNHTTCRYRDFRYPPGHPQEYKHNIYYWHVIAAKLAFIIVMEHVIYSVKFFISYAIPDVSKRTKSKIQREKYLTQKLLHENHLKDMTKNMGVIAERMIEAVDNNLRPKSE
Assay: YFP quenching assay (ANO6 ion channel activity)
Assay type: cell-based
Conditions: 10 μM ionomycin; for inhibition at 1 µM: test compound 1 μM, read-out: Inhibition Level 1 μM; for inhibition at 30 µM: test compound 30 μM, read-out: Inhibition Level 30 μM
Source text: Example 3: YFP Quenching Assay
1. Materials and Instruments
Ionomycin (Alomonelab cat. #I-700), FLUOstar Omega microplate reader (BMG Labtech, Ortenberg, Germany), and MARS Data Analysis Software (BMG Labtech)
Fisher rat thyroid (FRT) cells stably expressing human ANO6 (GenBank accession no. NP_001191732.1, provided by J. H. Nam, Dongguk University College of Medicine, Korea) and halide sensor mutant YFP-H148Q/I152L/F46L) were constructed and grown in Dulbecco's modified Eagle's medium Nutrient Mixture F-12 (DMEM/F-12) supplemented 10% FBS, 100 units/mL penicillin, 500 μg/mL hygromycin B and 100 μg/mL neomycin.
Fisher rat thyroid (FRT) cells stably expressing human ANO6 and halide sensor mutant YFP (H148Q/I152L/F46L) were seeded in black walled 96 well plates and incubated in a 37° C., 5% CO2 incubator to reach about 100% cell confluency. Then, each well of the 96 well plates were washed for several times with phosphate buffered saline (PBS), and 50 μL of PBS was added to each well. Test compounds (100× in DMSO) were added to each well to be 1% v/v DMSO. After incubation for 10 minutes in 40° C., the 96 well plates were transferred to a plate reader, and YFP fluorescence changed by SCN-introduced into cells through activated ANO6 were measured by the following steps.
(1) YFP fluorescence signals were recorded in every 0.4 seconds.
(2) Basal YFP fluorescence signals were recorded for 1 second.
(3) 140 mM SCN-(50 μL) containing 10 μM ionomycin was injected to each well, and YFP fluorescence signals were recorded.
The inhibitory activity (%) of each of the test compounds was obtained by the following steps.
(1) Background signals were subtracted from recording values, and the resulting values were converted to relative percentages. The values at 0 second were set to be 100%.
(2) Differences between the values at 3.6 seconds and those of at 7.6 seconds were calculated.
(3) In each row of 96 well plate, the inhibitory activity of each of the test compounds was calculated as percentages. The inhibitory activity of a negative control group to which neither compounds nor ionomycin were treated was set to be 100%, and the inhibitory activity of a positive control group to which ionomycin was treated and compounds were not treated was set to be 0%.
(4) The assay was performed in duplicate or triplicate, and the results were averaged.

| inhibition at 1 µM | inhibition at 30 µM | SMILES |
| --- | --- | --- |
| 30 to 60% | ≥ 60% | Cc1ccc(-c2ccc(Nc3cccc(C(=O)NCC(C)C)c3)nn2)cc1 [Compound A33] |
|  | 30 to 60% | Cc1ccc(CNC(=O)c2cccc(Nc3ncc(-c4ccc(F)cc4)cn3)c2)o1 [Compound A19] |
| < 30% | 30 to 60% | CCN(CC)CCCNC(=O)c1cccc(Nc2ccc(-c3ccccc3)nn2)c1 [Compound A59] |
|  | 30 to 60% | Cc1ccc(-c2ccc(Nc3cccc(C(=O)NCc4ccc(Cl)cc4)c3)nn2)cc1 [Compound A28] |
| < 30% | 30 to 60% | Cc1ccc(CNC(=O)c2cccc(Nc3ncc(-c4cccc(F)c4)cn3)c2)o1 [Compound A20] |
|  | 30 to 60% | Cc1ccc(-c2ccc(Nc3cccc(C(=O)NCc4ccc(F)cc4)c3)nn2)cc1 [Compound A23] |
|  | 30 to 60% | COc1ccc(CNC(=O)c2cccc(Nc3ccc(-c4ccc(F)cc4)nn3)c2)c(OC)c1 [Compound A9] |
|  | < 30% | Cc1ccc(CNC(=O)c2cccc(Nc3ccnc(-c4cccc(F)c4)n3)c2)o1 [Compound A21] |

More lines, now with the values behind:

| SMILES | inhibition at 1 µM | inhibition at 30 µM |
| --- | --- | --- |
| O=C(NCc1ccccn1)c1cccc(Nc2ccc(-c3ccccc3)nn2)c1 [Compound 19, 3-[(6-phenylpyridazin-3-yl)amino]-N-[(pyridin-2-yl)methyl]benzamide] | < 30% | ≥ 60% |
| Cc1ccc(CNC(=O)c2cccc(Nc3ncc(-c4cccc(C(=O)O)c4)cn3)c2)o1 [Compound 108, 3-{2-[(3-{[(5-methylfuran-2-yl)methyl]carbamoyl}phenyl)amino]pyrimidin-5-yl}benzoic acid] | < 30% |  |
| Cc1ccc(CNC(=O)c2cccc(Nc3ccc(C4CC4)nn3)c2)o1 [Compound 43, 3-[(6-cyclopropylpyridazin-3-yl)amino]-N-[(5-methylfuran-2-yl)methyl]benzamide] | < 30% |  |
| Cc1ccc(CNC(=O)c2cccc(Nc3ccc(C4CCCO4)nn3)c2)o1 (stereo not drawn) [Compound 86, N-[(5-methylfuran-2-yl)methyl]-3-{[6-(oxolan-2-yl)pyridazin-3-yl]amino}benzamide] | < 30% |  |
| CC(C)(C)NC(=O)c1cccc(Nc2ccc(-c3ccccc3)nn2)c1 [Compound 65, N-tert-butyl-3-[(6-phenylpyridazin-3-yl)amino]benzamide] | 30 to 60% |  |
| COc1ccc(-c2ccc(Nc3cccc(C(=O)NCc4ccc(C)o4)c3)nn2)cc1 [Compound 13, 3-{[6-(4-methoxyphenyl)pyridazin-3-yl]amino}-N-[(5-methylfuran-2-yl)methyl]benzamide] | < 30% | ≥ 60% |
| Cc1ccc(CNC(=O)c2cccc(Nc3ccc(C4CCN(C(=O)OC(C)(C)C)CC4)nn3)c2)o1 [Compound 69, tert-butyl 4-{6-[(3-{[(5-methylfuran-2-yl)methyl]carbamoyl}phenyl)amino]pyridazin-3-yl}piperidine-1-carboxylate] | < 30% |  |
| O=C(NCc1ccncc1)c1cccc(Nc2ccc(-c3ccccc3)nn2)c1 [Compound 18, 3-[(6-phenylpyridazin-3-yl)amino]-N-[(pyridin-4-yl)methyl]benzamide] | < 30% | 30 to 60% |
| O=C(NCC1CCOCC1)c1cccc(Nc2ccc(-c3ccccc3)nn2)c1 [Compound 34, N-[(oxan-4-yl)methyl]-3-[(6-phenylpyridazin-3-yl)amino]benzamide] | < 30% | ≥ 60% |
| CCOC(=O)c1ccc(-c2cnc(Nc3cccc(C(=O)NCc4ccc(C)o4)c3)nc2)cc1 [Compound 102, ethyl 4-{2-[(3-{[(5-methylfuran-2-yl)methyl]carbamoyl}phenyl)amino]pyrimidin-5-yl}benzoate] | < 30% |  |
| Cc1ccc(CNC(=O)c2cccc(Nc3ccc(C4CCOCC4)nn3)c2)o1 [Compound 49, N-[(5-methylfuran-2-yl)methyl]-3-{[6-(oxan-4-yl)pyridazin-3-yl]amino}benzamide] | < 30% |  |
| NC(=O)c1cccc(Nc2ccc(-c3ccccc3)nn2)c1 [Compound 17, 3-[(6-phenylpyridazin-3-yl)amino]benzamide] |  | 30 to 60% |

Source: patent US20230080054A1 (ILDONG PHARMACEUTICAL CO., LTD., priority 2021, published 2023)
